Data published in BindingDB's records for doi:10.1021/acsmedchemlett.9b00264 (Xiamen University, 2019).
pIC50: −log10 of the molar value.

Tests used:
[1] = Inhibition of JMJD6 in human HeLa cells assessed as decrease in cell proliferation measured after 72 hrs by CellTiter 96 AQueous one solution cell proliferation assay
[2] = Inhibition of JMJD6 in human […] cells assessed as decrease in cell proliferation measured after 72 hrs by CellTiter 96 AQueous one solution cell proliferation assay

pIC50 [1]: 5.61
pIC50 [2]: 4.99
SMILES: Cc1ccc2oc(=O)c(-c3nc4cnccc4[nH]3)cc2c1
